# Experimental data taken from patent publication US20190240225A1, “COMBINATION OF A BCL-2 INHIBITOR AND A MCL-1 INHIBITOR, USES AND PHARMACEUTICAL COMPOSITIONS THEREOF” (LES LABORATOIRES SERVIER, priority 2016, published 2019).
# What was measured:
# Test in all cases: MTT cell viability assay, myeloma cell line
# Format in all cases: cell-based, human
# [1] = system: LP1; settings: Homo sapiens, LP-1, single agent, read-out: IC50
# Procedure: (§1) Cell lines: Human myeloma cell lines (HMCLs) were derived from primary myeloma cells cultured in RPMI 1640 medium supplemented with 5% fetal calf serum from and 3 ng/mL recombinant IL-6 for IL-6 dependent cell lines. HMCLs are representative of phenotypic and genomic heterogeneity and the variability in patient's response to therapy.
# (§2) MTT assay: Cell viability is measured using MTT (3-(4,5-dimethylthiazol-2-yl)-2,5-diphenyltetrazolium bromide) colorimetric survival assay. Cells are incubated with compounds in 96-well plates containing a final volume of 100 μl/well time. (2R)-2-{[(5Sa)-5-{3-chloro-2-methyl-4-[2-(4-methylpiperazin-1-yl)ethoxy]phenyl}-6-(5-fluorofuran-2-yl)thieno[2,3-d]pyrimidin-4-yl]oxy}-3-(2-{[1-(2,2,2-trifluoroethyl)-1H-pyrazol-5-yl]methoxy}phenyl)propanoic acid (Compound 2) is used at 9 different concentrations accordingly to single agent sensitivity. N-(4-hydroxyphenyl)-3-{6-[((3S)-3-(4-morpholinylmethyl)-3,4-dihydro-2(1H)-isoquinolinyl)carbonyl]-1,3-benzodioxol-5-yl}-N-phenyl-5,6,7,8-tetrahydro-1-indolizine carboxamide hydrochloride (Compound 1, HCl) is used at a fixed dose—1 μM. At the end of each treatment, cells are incubated with 1 mg/mL MTT (50 μl MTT solution 2.5 mg/ml for each well) at 37° C. for 3 hours allowing the MTT to be metabolized. Lysis buffer (100 μl Lysis buffer: DMF (2:3)/SDS (1:3)) is added into each well to dissolve formazan cristals and after 18 h of incubation, absorbance in viable cells is measured at 570 nm using a spectrophotometer.
# (§3) The sensitivity of 27 human multiple myeloma cell lines to Compound 1, Compound 2 or to Compound 2 in the presence of 1 μM of Compound 1 was analyzed by using MTT cell viability assay. 50% inhibitory concentrations (IC50, in nM) were determined.
# [2] = system: BCN; settings: Homo sapiens, single agent, read-out: IC50
# Procedure: as §1, §2, §3
# [3] = system: U266; settings: Homo sapiens, U-266, single agent, read-out: IC50
# Procedure: as §1, §2, §3
# [4] = system: NAN1; settings: Homo sapiens, single agent, read-out: IC50
# Procedure: as §1, §2, §3
# [5] = system: ANBL6; settings: Homo sapiens, ANBL-6, single agent, read-out: IC50
# Procedure: as §1, §2, §3
# [6] = system: JIM3; settings: Homo sapiens, single agent, read-out: IC50
# Procedure: as §1, §2, §3
# [7] = system: AMO1; settings: Homo sapiens, single agent, read-out: IC50
# Procedure: as §1, §2, §3
# [8] = system: SBN; settings: Homo sapiens, single agent, read-out: IC50
# Procedure: as §1, §2, §3
# [9] = system: OPM2; settings: Homo sapiens, OPM-2, single agent, read-out: IC50
# Procedure: as §1, §2, §3
# [10] = system: XG3; settings: Homo sapiens, single agent, read-out: IC50
# Procedure: as §1, §2, §3
# [11] = system: XG6; settings: Homo sapiens, single agent, read-out: IC50
# Procedure: as §1, §2, §3
# [12] = system: JJN3; settings: Homo sapiens, JJN-3, single agent, read-out: IC50
# Procedure: as §1, §2, §3
# [13] = system: XG2; settings: Homo sapiens, single agent, read-out: IC50
# Procedure: as §1, §2, §3
# [14] = system: MM1S; settings: Homo sapiens, MM1.S, single agent, read-out: IC50
# Procedure: as §1, §2, §3
# [15] = system: NAN3; settings: Homo sapiens, single agent
# Procedure: as §1, §2, §3
# [16] = system: KMM1; settings: Homo sapiens, KMM-1, single agent, read-out: IC50
# Procedure: as §1, §2, §3
# [17] = system: NAN6; settings: Homo sapiens, single agent, read-out: IC50
# Procedure: as §1, §2, §3
# [18] = system: NAN9; settings: Homo sapiens, single agent, read-out: IC50
# Procedure: as §1, §2, §3
# [19] = system: NAN8; settings: Homo sapiens, single agent, read-out: IC50
# Procedure: as §1, §2, §3
# [20] = system: NCI-H929; settings: Homo sapiens, single agent, read-out: IC50
# Procedure: as §1, §2, §3
# [21] = system: KMS12BM; settings: Homo sapiens, KMS-12-BM, single agent, read-out: IC50
# Procedure: as §1, §2, §3
# [22] = system: XG1; settings: Homo sapiens, single agent, read-out: IC50
# Procedure: as §1, §2, §3
# [23] = system: XG11; settings: Homo sapiens, single agent, read-out: IC50
# Procedure: as §1, §2, §3
# [24] = system: XG7; settings: Homo sapiens, single agent, read-out: IC50
# Procedure: as §1, §2, §3
# [25] = system: RPMI8226; settings: Homo sapiens, RPMI-8226, single agent, read-out: IC50
# Procedure: as §1, §2, §3
smiles,measurement,setting,value
"Cl.O=C(c1cc(-c2cc3c(cc2C(=O)N2Cc4ccccc4C[C@H]2CN2CCOCC2)OCO3)n2c1CCCC2)N(c1ccccc1)c1ccc(O)cc1 [Compound 1, HCl, N-(4-hydroxyphenyl)-3-{6-[((3S)-3-(4-morpholinylmethyl)-3,4-dihydro-2(1H)-isoquinolinyl)carbonyl]-1,3-benzodioxol-5-yl}-N-phenyl-5,6,7,8-tetrahydro-1-indolizine carboxamide hydrochloride]",IC50,[1],9.77 µM
same,IC50,[2],22.2 µM
same,IC50,[3],> 30 µM
same,IC50,[4],6.66 µM
same,IC50,[5],1.91 µM
same,IC50,[6],> 30 µM
same,IC50,[7],8.61 µM
same,IC50,[8],21.3 µM
same,IC50,[9],6.46 µM
same,IC50,[10],7.22 µM
same,IC50,[11],8.54 µM
same,IC50,[12],2.69 µM
same,IC50,[13],15.3 µM
same,IC50,[14],21.4 µM
same,IC50,[15],8.24 µM
same,IC50,[16],23.9 µM
same,IC50,[17],4.07 µM
same,IC50,[18],23.2 µM
same,IC50,[19],9.1 µM
same,IC50,[20],15.7 µM
same,IC50,[21],1.39 µM
same,IC50,[22],9.78 µM
same,IC50,[23],7.91 µM
same,IC50,[24],18.1 µM
same,IC50,[25],3.2 µM
